Assay results as given in patent US7851474B2, “Dipiperazinyl ketones and related analogues” (Neurogen Corporation, priority 2005, dated 2010).

target: T1, chimeric human H3 receptor (Homo sapiens, UniProt Q9Y5N1, E19D); experiment: Chimeric human H3 receptor screening GTP binding assay (inhibition of histamine-stimulated GTP-gamma35S binding, Example 8); assay type: biochemical; details: 1 h; "+" in Ki of Table II; assay of Example 8; read-out: percent inhibition of agonist-induced GTP-gammaS binding to H3
T1 construct: made in house; host or cells: Sf9 insect cells (baculovirus infection); P2 membrane preparation
Outline: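 Data are percent inhibition of the 1 μM histamine-stimulated GTP-gamma35S (125 pM) binding, after non-specific binding (10 uM GTP-gammaS) is subtracted. Test compound at 4 μM. Incubation was 60 min at room temperature with Sf9 membranes bearing receptor plus G-protein subunits, buffer pH 7.4 with 10 μM GDP, and filtration read-out.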

T1 sequence (Q9Y5N1 with tags, fused parts or gaps E19D): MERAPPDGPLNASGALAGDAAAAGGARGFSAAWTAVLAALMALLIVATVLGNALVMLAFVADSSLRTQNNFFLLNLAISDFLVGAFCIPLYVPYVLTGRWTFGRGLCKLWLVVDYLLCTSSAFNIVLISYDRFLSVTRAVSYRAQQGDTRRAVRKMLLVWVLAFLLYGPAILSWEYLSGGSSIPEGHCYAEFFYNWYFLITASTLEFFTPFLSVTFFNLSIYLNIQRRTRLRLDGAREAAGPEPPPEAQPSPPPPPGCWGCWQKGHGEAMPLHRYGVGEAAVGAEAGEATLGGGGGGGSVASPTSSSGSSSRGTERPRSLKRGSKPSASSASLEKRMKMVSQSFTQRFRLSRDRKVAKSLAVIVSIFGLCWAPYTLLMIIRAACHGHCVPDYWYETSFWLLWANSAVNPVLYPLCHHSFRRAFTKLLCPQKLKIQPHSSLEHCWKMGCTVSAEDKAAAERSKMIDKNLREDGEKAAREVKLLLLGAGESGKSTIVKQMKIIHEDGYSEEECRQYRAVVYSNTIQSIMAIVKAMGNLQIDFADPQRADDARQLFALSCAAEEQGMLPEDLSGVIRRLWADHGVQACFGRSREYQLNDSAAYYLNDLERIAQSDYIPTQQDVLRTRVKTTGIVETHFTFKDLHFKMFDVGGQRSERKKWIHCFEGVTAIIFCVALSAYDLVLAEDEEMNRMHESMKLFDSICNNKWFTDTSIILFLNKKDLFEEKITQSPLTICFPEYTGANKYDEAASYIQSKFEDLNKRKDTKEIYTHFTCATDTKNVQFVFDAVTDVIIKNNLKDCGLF

inhibition at 4 µM	SMILES
> 90%	O=C(/C=C/c1cccc(F)c1F)N1CCN(CC(=O)N2CCN(C3CCC3)CC2)CC1 [Compound 516, 1-cyclobutyl-4-({4-[(2E)-3-(2,3-difluorophenyl)prop-2-enoyl]piperazin-1-yl}acetyl)piperazine]
> 90%	COc1cccc(/C=C/C(=O)N2CCN(CC(=O)N3CCN(C4CCC4)CC3)CC2)c1OC [Compound 517, 1-cyclobutyl-4-({4-[(2E)-3-(2,3-dimethoxyphenyl)prop-2-enoyl]piperazin-1-yl}acetyl)piperazine]
> 90%	COc1cc(OC)c(OC)cc1/C=C/C(=O)N1CCN(CC(=O)N2CCN(C3CCC3)CC2)CC1 [Compound 518, 1-cyclobutyl-4-({4-[(2E)-3-(2,4,5-trimethoxyphenyl)prop-2-enoyl]piperazin-1-yl}acetyl)piperazine]
> 90%	O=C(/C=C/c1ccc(Cl)cc1Cl)N1CCN(CC(=O)N2CCN(C3CCC3)CC2)CC1 [Compound 519, 1-cyclobutyl-4-({4-[(2E)-3-(2,4-dichlorophenyl)prop-2-enoyl]piperazin-1-yl}acetyl)piperazine]
> 90%	COc1ccc(/C=C/C(=O)N2CCN(CC(=O)N3CCN(C4CCC4)CC3)CC2)c(OC)c1 [Compound 520, 1-cyclobutyl-4-({4-[(2E)-3-(2,4-dimethoxyphenyl)prop-2-enoyl]piperazin-1-yl}acetyl)piperazine]
> 90%	COc1ccc(OC)c(/C=C/C(=O)N2CCN(CC(=O)N3CCN(C4CCC4)CC3)CC2)c1 [Compound 521, 1-cyclobutyl-4-({4-[(2E)-3-(2,5-dimethoxyphenyl)prop-2-enoyl]piperazin-1-yl}acetyl)piperazine]
> 90%	O=C(/C=C/c1c(Cl)cccc1Cl)N1CCN(CC(=O)N2CCN(C3CCC3)CC2)CC1 [Compound 522, 1-cyclobutyl-4-({4-[(2E)-3-(2,6-dichlorophenyl)prop-2-enoyl]piperazin-1-yl}acetyl)piperazine]
> 90%	CCOc1ccccc1/C=C/C(=O)N1CCN(CC(=O)N2CCN(C3CCC3)CC2)CC1 [Compound 523, 1-cyclobutyl-4-({4-[(2E)-3-(2-ethoxyphenyl)prop-2-enoyl]piperazin-1-yl}acetyl)piperazine]
> 90%	O=C(C=Cc1ccccc1F)N1CCN(CC(=O)N2CCN(C3CCC3)CC2)CC1 [Compound 524, 1-cyctobutyl-4-({4-[(2E)-3-(2-fluorophenyl)prop-2-enoyl]piperazin-1-yl}acetyl)piperazine]
> 90%	COc1ccccc1/C=C/C(=O)N1CCN(CC(=O)N2CCN(C3CCC3)CC2)CC1 [Compound 525, 1-cyclobutyl-4-({4-[(2E)-3-(2-methoxyphenyl)prop-2-enoyl]piperazin-1-yl}acetyl)piperazine]
> 90%	Cc1ccccc1/C=C/C(=O)N1CCN(CC(=O)N2CCN(C3CCC3)CC2)CC1 [Compound 526, 1-cyclobutyl-4-({4-[(2E)-3-(2-methylphenyl)prop-2-enoyl]piperazin-1-yl}acetyl)piperazine]
> 90%	O=C(/C=C/c1ccc(Cl)c(Cl)c1)N1CCN(CC(=O)N2CCN(C3CCC3)CC2)CC1 [Compound 527, 1-cyclobutyl-4-({4-[(2E)-3-(3,4-dichlorophenyl)prop-2-enoyl]piperazin-1-yl}acetyl)piperazine]
> 90%	COc1ccc(/C=C/C(=O)N2CCN(CC(=O)N3CCN(C4CCC4)CC3)CC2)cc1OC [Compound 528, 1-cyclobutyl-4-({4-[(2E)-3-(3,4-dimethoxyphenyl)prop-2-enoyl]piperazin-1-yl}acetyl)piperazine]
> 90%	O=C(/C=C/c1ccc(F)cc1)N1CCN(CC(=O)N2CCN(C3CCC3)CC2)CC1 [Compound 529, 1-cyclobutyl-4-({4-[(2E)-3-(4-fluorophenyl)prop-2-enoyl]piperazin-1-yl}acetyl)piperazine]
> 90%	COc1ccc(/C=C/C(=O)N2CCN(CC(=O)N3CCN(C4CCC4)CC3)CC2)cc1 [Compound 530, 1-cyclobutyl-4-({4-[(2E)-3-(4-methoxyphenyl)prop-2-enoyl]piperazin-1-yl}acetyl)piperazine]
> 90%	O=C(/C=C/c1ccc(OCc2ccc(F)cc2)cc1)N1CCN(CC(=O)N2CCN(C3CCC3)CC2)CC1 [Compound 531, 1-cyclobutyl-4-({4-[(2E)-3-{4-[(4-fluorobenzyl)oxy]phenyl}prop-2-enoyl]piperazin-1-yl}acetyl)piperazine]
> 90%	O=C(/C=C/c1ccccc1)N1CCN(CC(=O)N2CCN(C3CCC3)CC2)CC1 [Compound 532, 1-cyclobutyl-4-({4-[(2E)-3-phenylprop-2-enoyl]piperazin-1-yl}acetyl)piperazine]
> 90%	COc1ncccc1C(=O)N1CCN(CC(=O)N2CCN(C3CCC3)CC2)CC1 [Compound 537, 1-cyclobutyl-4-({4-[(2-methoxypyridin-3-yl)carbonyl]piperazin-1-yl}acetyl)piperazine]
> 90%	O=C(CN1CCN(C(=O)c2csc(-c3ccncc3)n2)CC1)N1CCN(C2CCC2)CC1 [Compound 543, 1-cyclobutyl-4-({4-[(2-pyridin-4-yl-1,3-thiazol-4-yl)carbonyl]piperazin-1-yl}acetyl)piperazine]
> 90%	CCOc1ccsc1C(=O)N1CCN(CC(=O)N2CCN(C3CCC3)CC2)CC1 [Compound 549, 1-cyclobutyl-4-({4-[(3-ethoxy-2-thienyl)carbonyl]piperazin-1-yl}acetyl)piperazine]
> 90%	Cc1ccsc1C(=O)N1CCN(CC(=O)N2CCN(C3CCC3)CC2)CC1 [Compound 553, 1-cyclobutyl-4-({4-[(3-methyl-2-thienyl)carbonyl]piperazin-1-yl}acetyl)piperazine]

Second part, the compound before the results:

SMILES	inhibition at 4 µM
CCOc1ccccc1CC(=O)N1CCN(CC(=O)N2CCN(C3CCC3)CC2)CC1 [Compound 533, 1-cyclobutyl-4-({4-[(2-ethoxyphenyl)acetyl]piperazin-1-yl}acetyl)piperazine]	> 90%
O=C(Cc1ccccc1F)N1CCN(CC(=O)N2CCN(C3CCC3)CC2)CC1 [Compound 534, 1-cyclobutyl-4-({4-[(2-fluorophenyl)acetyl]piperazin-1-yl}acetyl)piperazine]	> 90%
COc1ccccc1OCC(=O)N1CCN(CC(=O)N2CCN(C3CCC3)CC2)CC1 [Compound 535, 1-cyclobutyl-4-({4-[(2-methoxyphenoxy)acetyl]piperazin-1-yl}acetyl)piperazine]	> 90%
Cc1ccccc1OCC(=O)N1CCN(CC(=O)N2CCN(C3CCC3)CC2)CC1 [Compound 538, 1-cyclobutyl-4-({4-[(2-methylphenoxy)acetyl]piperazin-1-yl}acetyl)piperazine]	> 90%
Cc1ccccc1CC(=O)N1CCN(CC(=O)N2CCN(C3CCC3)CC2)CC1 [Compound 539, 1-cyclobutyl-4-({4-[(2-methylphenyl)acetyl]piperazin-1-yl}acetyl)piperazine]	> 90%
O=C(COc1ccc2ccccc2c1)N1CCN(CC(=O)N2CCN(C3CCC3)CC2)CC1 [Compound 540, 1-cyclobutyl-4-({4-[(2-naphthyloxy)acetyl]piperazin-1-yl}acetyl)piperazine]	> 90%
O=C(CN1CCN(C(=O)c2cccnc2Oc2ccccc2)CC1)N1CCN(C2CCC2)CC1 [Compound 542, 1-cyclobutyl-4-({4-[(2-phenoxypyridin-3-yl)carbonyl]piperazin-1-yl}acetyl)piperazine]	> 90%
COc1cc(CC(=O)N2CCN(CC(=O)N3CCN(C4CCC4)CC3)CC2)cc(OC)c1OC [Compound 544, 1-cyclobutyl-4-({4-[(3,4,5-trimethoxyphenyl)acetyl]piperazin-1-yl}acetyl)piperazine]	> 90%
O=C(COc1ccc(Cl)c(Cl)c1)N1CCN(CC(=O)N2CCN(C3CCC3)CC2)CC1 [Compound 545, 1-cyclobutyl-4-({4-[(3,4-dichlorophenoxy)acetyl]piperazin-1-yl}acetyl)piperazine]	> 90%
O=C(Cc1ccc(Cl)c(Cl)c1)N1CCN(CC(=O)N2CCN(C3CCC3)CC2)CC1 [Compound 546, 1-cyclobutyl-4-({4-[(3,4-dichlorophenyl)acetyl]piperazin-1-yl}acetyl)piperazine]	> 90%
COc1ccc(CC(=O)N2CCN(CC(=O)N3CCN(C4CCC4)CC3)CC2)cc1OC [Compound 547, 1-cyclobutyl-4-({4-[(3,4-dimethoxyphenyl)acetyl]piperazin-1-yl}acetyl)piperazine]	> 90%
COc1cc(CC(=O)N2CCN(CC(=O)N3CCN(C4CCC4)CC3)CC2)cc(OC)c1 [Compound 548, 1-cyclobutyl-4-({4-[(3,5-dimethoxyphenyl)acetyl]piperazin-1-yl}acetyl)piperazine]	> 90%
O=C(Cc1cccc(F)c1)N1CCN(CC(=O)N2CCN(C3CCC3)CC2)CC1 [Compound 550, 1-cyclobutyl-4-({4-[(3-fluorophenyl)acetyl]piperazin-1-yl}acetyl)piperazine]	> 90%
COc1cccc(OCC(=O)N2CCN(CC(=O)N3CCN(C4CCC4)CC3)CC2)c1 [Compound 551, 1-cyclobutyl-4-({4-[(3-methoxyphenoxy)acetyl]piperazin-1-yl}acetyl)piperazine]	> 90%
COc1cccc(CC(=O)N2CCN(CC(=O)N3CCN(C4CCC4)CC3)CC2)c1 [Compound 552, 1-cyclobutyl-4-({4-[(3-methoxyphenyl)acetyl]piperazin-1-yl}acetyl)piperazine]	> 90%
Cc1cccc(OCC(=O)N2CCN(CC(=O)N3CCN(C4CCC4)CC3)CC2)c1 [Compound 554, 1-cyclobutyl-4-({4-[(3-methylphenoxy)acetyl]piperazin-1-yl}acetyl)piperazine]	> 90%
